Experimental data from US8901090B2, “Method of treating otitis externa using macrocyclic lactone compound” (Galderma S.A., priority 2010, dated 2014).

Assay: Topical treatment of patients with acute otitis externa with ivermectin lotion (informal trials, Examples 3-6)
Type: in vivo, human
Description: The otic composition of the present invention described above is applied into the external auditory canal and on the auricle of the affected ear. The lotion, gel, or ointment can be applied with an applicator into the external auditory canal by the patient or others. Preferably, the applicator has a smooth surface, for example, a glass rod, coated with the lotion, gel, or ointment. Although cotton swab can be used, precaution should be exercised, because cotton swab is rough and it can cause irritation to the epidermis of the external auditory canal, and cotton residue left in the ear canal can cause further complication of the condition. The composition in the form of liquid suspension can be dropped or sprayed into the external auditory canal. The otic composition can be packaged for proper dosing by the patients. Moreover, the otic composition can also be integrated into or applied on an absorbent material, such as a strip of cotton fabric or medical dressing, and then the absorbent material is inserted into the external auditory canal by a physician as needed.
Operating with informed consent of individuals, individuals were treated with the otic composition and the method of the present invention for treating otitis externa, as described in Examples 3 to 7.
A person presented with acute otitis externa, symptoms including pain, tenderness, and swelling of the right ear canal. […]

With ivermectin the “effectiveness in treating otitis externa” value (otic composition containing ivermectin at a concentration as low as 0.075%) was “effective” and the “time until dramatic resolution of the symptoms” value (summary of Examples 3 through 6, otic composition containing 0.075% of ivermectin) was no more than 24 h.
